# Assay results taken from PMC12257510, “Structure-Guided Design of a KMT9 Inhibitor Prodrug with Cellular Activity” (Journal of Medicinal Chemistry, 2025).
# What was measured:
# Format in all cases: cell-based
# endogenous KMT9a = target: T1, endogenous KMT9a (Homo sapiens, UniProt Q9Y5N5); experiment: CETSA in intact SW480 cells, KMT9; settings: 18 h, vs DMSO
# T1 construct: increased thermal stability of endogenous KMT9 in SW480 cell lysates; endogenous in cells; host or cells: SW480
# T1 sequence (Q9Y5N5 1-214): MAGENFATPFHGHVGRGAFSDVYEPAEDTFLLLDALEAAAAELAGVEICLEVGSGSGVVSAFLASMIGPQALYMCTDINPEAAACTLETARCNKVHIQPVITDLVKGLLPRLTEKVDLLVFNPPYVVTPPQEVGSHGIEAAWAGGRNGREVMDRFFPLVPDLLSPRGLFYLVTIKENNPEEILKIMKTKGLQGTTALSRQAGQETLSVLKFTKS
# T1 sequence (Q9UI30 1-125 partner): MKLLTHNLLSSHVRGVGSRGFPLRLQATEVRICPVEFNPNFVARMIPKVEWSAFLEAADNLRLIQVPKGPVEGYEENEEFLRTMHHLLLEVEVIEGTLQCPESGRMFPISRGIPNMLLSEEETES
# Procedure: (§1) For whole cell CETSA, the cells were incubated with 10/15 μM of compound 7b/8/8-N for 18 h. Then, cells were washed with cell culture medium, detached from the surface using trypsin, washed with PBS and the number of cells was determined. Cell concentration was adjusted to 3.6 × 10^7 cells/mL using in PBS with Complete (w/o EDTA, Roche) protease inhibitor. Then, cells were frozen in liquid nitrogen and thawed at 25 °C three times, before being divided in 16 aliquots. Each aliquot was heated to a defined temperature between 40 and 70 °C in a PCR cycler (16 well gradient, 55 °C ± 15). After 3 min incubation, aliquots were snap frozen in liquid nitrogen and thawed at 25 °C. Cell lysates were then centrifuged at 20,000 × g , 4 °C for 20 min. Supernatant were mixed with 5× loading buffer, heated to 70 °C for 5 min and analyzed by Western blotting essentially as previously described. For the CETSA performed with cell lysates, cells were directly harvested and lysed as described above. The lysates were then split and incubated either with DMSO or 10 μM compound 7b for 2 h. Then, lysates were aliquoted again into 16 samples each and treated as described for the whole cell CETSA.
# KMT5A = target: T2, KMT5A (Homo sapiens, UniProt Q9NQR1); experiment: CETSA in HepG2 cells, KMT5A; set-up: KMT5A upon treatment with compound 8 compared to DMSO; endogenous in cells; host or cells: HepG2
# T2 sequence (Q9NQR1 1-393): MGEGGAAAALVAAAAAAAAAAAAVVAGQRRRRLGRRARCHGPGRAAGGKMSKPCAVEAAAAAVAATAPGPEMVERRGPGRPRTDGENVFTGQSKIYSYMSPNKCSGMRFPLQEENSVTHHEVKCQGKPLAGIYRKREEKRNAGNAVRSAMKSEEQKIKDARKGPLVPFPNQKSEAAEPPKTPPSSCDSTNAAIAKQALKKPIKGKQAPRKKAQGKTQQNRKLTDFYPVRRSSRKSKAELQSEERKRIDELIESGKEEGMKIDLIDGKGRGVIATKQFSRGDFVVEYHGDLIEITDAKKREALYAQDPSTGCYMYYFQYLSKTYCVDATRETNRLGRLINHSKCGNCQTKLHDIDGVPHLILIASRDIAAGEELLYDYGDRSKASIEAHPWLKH
# Procedure: as §1, with “The lysates were then split and incubated either with DMSO or 10 μM compound 7b for 2 h. Then, lysates were aliquoted again into 16 samples each and treated as described for the whole cell CETSA.” left out
# Figure S5. […] Representative Western blots (D) and quantification (E) showing increased melting temperatures (ΔT m) of endogenous KMT9a upon treatment with compound 8 compared to DMSO. […] Representative Western blots (F) and quantification (G) showing no obvious shifting melting temperatures (ΔT m) of endogenous KMT5A upon treatment with compound 8 compared to DMSO. […]
# [1] = test system: H4K12me1 levels in PC-3 M prostate tumor cells; experiment: Western blot of cellular H4K12me1 levels; settings: PC-3 M cells, 10 μM, 3 days
# Procedure: 7 Cellular activity of prodrug compound 8. (A) Levels of H4K12me1 in PC-3 M prostate tumor cells cultured in the presence of DMSO (−), 10 μM compound 8 or compound 8-N for 3 days were analyzed by Western blot using the indicated antibodies. Histone H4 was used as control. (B, C) Proliferation of Caco-2 cells treated with DMSO (Ctrl), compound 8, or compound 8-N were measured by Xcelligence. Data represent means ± s.d (n = 3). (D) Proliferation of HepG2 cells upon treatment of DMSO (Ctrl) and compound 8.
# Experiments were performed as previously described. Histones used for Western blot analysis were extracted from cells as following: Cells were harvested, washed with PBS, resuspended in Triton Extraction Buffer (TEB; PBS, Triton ×100, 2 mM PMSF, 0.02% NaN3), stored 10 min on ice, centrifuged, and supernatant was discarded. After washing cells, a second time with TEB, pellets were resuspended in 0.2 N HCl and histones were acid-extracted overnight at 4 °C. Upon centrifugation for 10 min at 2000 rpm, supernatant was collected and protein concentration was determined. Three days before harvesting, cells were transfected with siRNA as indicated. The following antibodies were used: anti-KMT9α (#27630, lot 20062017, Schüle Lab), antihistone H4 (#ab10158, lot GR322677–1, Abcam), anti-H4K12me1 (#27429, lot 27062017, Schüle Lab).
structure (smiles),measurement,setting,value
"CCOC(=O)[C@@H](N)CCN(CCCNCCc1ccc(Oc2ccc(Cl)cc2)c(F)c1)C[C@H]1C[C@@H](n2ccc3c(NC)ncnc32)[C@H](O)[C@@H]1O [compound 8, Ethyl (S)-2-amino-4-((3-((4-(4-chlorophenoxy)-3-fluorophenethyl)amino)propyl) (((1R,2R,3S,4R)-2,3-dihydroxy-4-(4-(methylamino)-7H-pyrrolo[2,3-d]pyrimidin-7-yl)cyclopentyl)methyl)amino)butanoate]",ΔTm at 10 µM,endogenous KMT9a,5 °C
same,ΔTm at 15 µM,KMT5A,0.1 °C
same,Levels of H4K12me1,[1],reduced H4K12me1 levels
